Several values for one entry are separate records, joined by “and”; a condition that tells them apart may be missing. Identical values can stand only once.
Experiments:
[1] = type: in vivo, human
Description: All subjects gave written informed consent; the study was conducted at PRA Health Sciences (Zuidlaren, The Netherlands) in accordance with the Declaration of Helsinki and was approved by an accredited institutional ethics committee (Medisch Ethische Toetsings Commissie, Assen, The Netherlands).
Subjects remained fasting until 2-h after the end of the infusion. Volunteers stayed in-house until 14 days after the application and subsequently urine and feces were collected for 24-h on Day 16, 20, 27 and 34 if necessary, cf. below.
Urine was collected pre-dose, at 0–12-h and 12–24 h after the start of the infusion and thereafter over 24-h intervals on Day 2 to Day 14 as well as on Day 16, 20, 27 and 34 (±1 day). Cumulative 24-h fecal samples were collected from Day 1 (day of infusion) to Day 14 and as well as on Day 16, 20, 27 and 34 (±1 day). […] The excreted radioactivity between ambulant visits during the prolongation phase of the clinical study was calculated using interpolation to get a more realistic total excretion value of all subjects (see "Pharmacokinetic analysis").
(§1) After pooling and homogenization of urine and feces samples per time interval, aliquots were stored at −20 °C for total radioactivity determination and at −70°C for metabolic profiling (including blood/plasma samples). For determination of total radioactivity, samples were analyzed with a Perkin Elmer Tri-Carb™ 3100 TR liquid scintillation analyzer (Perkin Elmer, Waltham, MA, USA) with quenching correction. For metabolite profiling, plasma samples were treated with a mixture of acetonitrile (ACN) +0.2% acetic acid, after shaking and centrifugation, the supernatant was concentrated. Urine and feces samples were treated with solid-phase extraction (Waters HLB 30 mg, 1 mL, Waters, Milford, MA, USA) and liquid–liquid extraction (ACN + 0.2% trifluoroacetic acid/water, 80:20 volume/volume), respectively. Subsequently samples from plasma, urine and feces were analyzed by HPLC-LSC on Synergi Polar 4 µm 150 × 2 mm (Phenomenex, Aschaffenburg, Germany) with off-line radioactivity detection by Microbeta^2™ Plus liquid scintillation counter with Ultima Flo™ AP scintillation fluid (Packard Instrument BV, Groningen, The Netherlands).
For blood/plasma ratio determination, total radioactivity in urine and feces well as data from HPLC analysis data from radioactivity measurement by liquid scintillation counting (LSC) were considered. The amount of radioactivity recovered in the excreta (A E) was related to the administered radioactive dose to establish the radioactive balance. Arithmetic means and coefficients of variation (CV) were calculated for these percentages. […] Cumulative excretion was calculated as sum of the collection intervals. The elimination of the total radioactivity in urine and feces for time-points beyond day 14 was performed by log-linear extrapolation between analyzed time-points. Amounts of radioactivity excreted in urine and feces between two ambulant visits were calculated per interpolated day by linear interpolation of log-transformed excretion data separately per matrix (lnA E(interpolated day) = Δdays × [lnA E(Visit i + 1) − lnA E(Visit i)]/[day (Visit i + 1) − day (Visit i)] + lnA E(Visit i), with A E given as amount of radioactivity excreted in matrix per day and Δdays being the difference between the calculated day and the last available visit with A E > 0). In case no feces sample was provided on an ambulant visit, this visit was neglected for interpolation.

[2] = Mass balance: excretion of radioactivity, copanlisib and metabolites in urine and feces; type: in vivo, human; settings: for Amount excreted in feces as this component, arithmetic mean (range): HPLC with off-line radioactivity detection
Description: as §1
Metabolite patterns in plasma, urine and feces were studied by the HPLC method with off-line radioactivity detection described above.
A similar approach has been described earlier.

plasma protein = settings: reversible; cited from earlier work
P-glycoprotein (P-gp) = test system: P-glycoprotein (P-gp); parameters: method as in Bayer AG, data on file; settings: in vitro; ref Bayer AG, data on file; cited from earlier work
[3] = test system: breast Cancer Resistance Protein (BCRP); parameters: method as in Bayer AG, data on file; settings: in vitro; ref Bayer AG, data on file; cited from earlier work
cytochrome P450 3A4 = test system: cytochrome P450 3A4; parameters: method as in Bayer AG, data on file; settings: in vitro, humans; ref Bayer AG, data on file; cited from earlier work
[4] = cited from earlier work
PI3K-α = settings: cited from earlier work
PI3K-δ = settings: cited from earlier work
[5] = test system: primary malignant B cell lines; settings: cited from earlier work
[6] = whole blood, range of 6 subjects
[7] = all 6 subjects after individual study release (Day 20–Day 34)
[8] = study release at Day 20 (N = 6)
[9] = study release at Day 27 (N = 5)
[10] = study release at Day 34 (N = 3)

COc1c(OCCCN2CCOCC2)ccc2c1N=C(NC(=O)c1cnc(N)nc1)N1CCN=C21 [Copanlisib, copanlisib]
Total radioactivity AUC (0–t last) in blood, geometric mean (% CV) ([1]; in vivo): 558 (28.8%) ng-Eq·h/mL
Total radioactivity AUC (0–t last) in blood, range ([1]; in vivo): 347–756 ng-Eq·h/mL
Total radioactivity AUC (0–t last) in plasma, geometric mean (% CV) ([1]; in vivo): 324 (54.1%) ng-Eq·h/mL
Total radioactivity AUC (0–t last) in plasma, range ([1]; in vivo): 150–601 ng-Eq·h/mL
Total radioactivity t last in plasma, median ([1]; plasma): 60 h
Total radioactivity t max in plasma, median ([1]; plasma): 1 h
Recovery of radioactivity extractable from plasma ([1]; plasma extraction, no indication of covalent adduct formation): > 90%
Total radioactivity C max in plasma, geometric mean (% CV) ([1]; plasma, 12 mg copanlisib (2.76 MBq 14C) 1-h infusion): 45.6 (26.0%) ng-Eq/mL
Total radioactivity C max in plasma, range ([1]; plasma, range of 6 subjects): 32.1–57.6 ng-Eq/mL
Total radioactivity t last in plasma, range ([1]; plasma, range of 6 subjects): 24 to 96 h
Total radioactivity t max in plasma, range ([1]; plasma, range of 6 subjects): 0.5 to 1 h
Total radioactivity C max in blood, geometric mean (% CV) ([1]; whole blood): 83.5 (26.3%) ng-Eq/mL
Total radioactivity t last in blood, median ([1]; whole blood): 72 h
Total radioactivity t max in blood, median ([1]; whole blood): 1 h
Total radioactivity C max in blood, range [1, 6]: 59.2–114 ng-Eq/mL
Total radioactivity t last in blood, range [1, 6]: 36 to 72 h
Total radioactivity t max in blood, range [1, 6]: 0.5 to 1 h
Total radioactivity excreted in feces, arithmetic mean [2, 7]: 64.2 (56.7–68.1) % of dose
Total radioactivity excreted in feces, range [2, 7]: 56.7–68.1%
Total radioactivity excreted in urine, arithmetic mean [2, 7]: 21.7 (17.0–27.4) % of dose
Total radioactivity excreted in urine, range [2, 7]: 17.0–27.4%
Total radioactivity recovery in urine and feces, mean [2, 7]: 86% and 85.9 ± 3.4% and about 86%
Total radioactivity recovery in urine and feces, range [2, 7]: 81.7–91.0%
Amount excreted in feces as this component, arithmetic mean (range) ([2]; 6 subjects): 30.1 (16.8–37.9) % of dose
Amount excreted in feces as this component, arithmetic mean (range) ([2]; 6 subjects, listed as copanlisib): 30 % of dose
Dose cleared via metabolism ([2]; in vivo): about 41%
Renal clearance (A e,ur/AUC) as share of total body clearance ([2]; in vivo): about 15%
Share of observed renal clearance accounted for by passive renal filtration ([2]; in vivo): about one to two-thirds
Excreted radioactivity in feces, mean [2, 8]: 61.0 ± 4.1%
Excreted radioactivity in feces, range [2, 8]: 54.8–66.7%
Excreted radioactivity in urine, mean [2, 8]: 20.0 ± 3.5%
Excreted radioactivity in urine, range [2, 8]: 16.3–26.5%
Excreted total radioactivity in urine and feces, mean [2, 8]: 81.0 ± 2.1%
Excreted total radioactivity in urine and feces, range [2, 8]: 77.8–83.0%
Excreted radioactivity in feces, mean [2, 9]: 63.4 ± 4.5%
Excreted radioactivity in feces, range [2, 9]: 56.7–67.4%
Excreted radioactivity in urine, mean [2, 9]: 21.5 ± 3.9%
Excreted radioactivity in urine, range [2, 9]: 17.0–27.4%
Excreted total radioactivity in urine and feces, mean [2, 9]: 84.9 ± 2.3%
Excreted total radioactivity in urine and feces, range [2, 9]: 82.3–88.5%
Excreted radioactivity in feces, mean [2, 10]: 66.1 ± 3.2%
Excreted radioactivity in feces, range [2, 10]: 62.4–68.1%
Excreted radioactivity in urine, mean [2, 10]: 22.2 ± 1.4%
Excreted radioactivity in urine, range [2, 10]: 20.6–23.1%
Excreted total radioactivity in urine and feces, mean [2, 10]: 88.3 ± 2.9%
Excreted total radioactivity in urine and feces, range [2, 10]: 85.2–91.0%
Radioactivity excreted that could be assigned to known structures ([2]; urine and feces): Over 98%
Amount of dose recovered as this component in urine and feces combined ([2]; urine plus feces, 6 subjects): 45.1 % of dose
Amount of dose recovered as this component in urine and feces combined, range ([2]; urine plus feces, range of 6 subjects): 33.3–53.8%
free fraction (fraction unbound in plasma), plasma protein binding (plasma protein): 15.8%
Substrate of efflux transporter P-gp (P-glycoprotein (P-gp)): substrate
Substrate of efflux transporter BCRP [3]: substrate
Involvement of cytochrome P450 3A4 in the primary biotransformation step (cytochrome P450 3A4): predominant involvement
mean systemic plasma clearance ([4]; %CV 51.2, dose escalation study): 18.9 L/h
Accumulation and time dependency after once weekly dosing ([4]; PK on Cycle 1 Days 1 and 15 and Cycle 3 Day 15, dose escalation study): No accumulation and no time dependency
Half-life, range (known PK of copanlisib) [4]: 16.9 to 72.7 h
Dose dependence of C max and AUC (0–25) ([4]; dose range 0.1–1.2 mg/kg (5–93 mg total dose), dose escalation study): dose proportional increases
terminal phase half-life (t 1/2) ([4]; human, in vivo, 0.8 mg/kg): 39.1 h
volume of distribution ([4]; human, in vivo, 0.8 mg/kg): 871 L
PI3K-α inhibitory activity (PI3K-α): predominant PI3K-α and PI3K-δ inhibitory activity
PI3K-δ inhibitory activity (PI3K-δ): predominant PI3K-α and PI3K-δ inhibitory activity
Tumor cell death [5]: induce tumor cell death including apoptosis
